Results: patent publication US11548891B1, “Quaternary ammonium salts of phenanthroindolizidine and phenanthroquinolizidine alkaloids as hypoxia-targeted anticancer agents” (BATTERJEE MEDICAL COLLEGE, priority 2022, dated 2023)
Where two headings read alike, the source gives them in different places.

Tests used:
H460 = test: Cytotoxicity under normoxia and hypoxia (anaerobic chamber), H460; assay type: cell-based, Human; conditions: for IC50: 4 h exposure
Protocol: (§1) The ability of the designed prodrugs to liberate the active alkaloids in hypoxic tumors was evaluated by testing them under hypoxic conditions using an anaerobic chamber. The three prodrugs 5a-c and their parent alkaloids as well as the reference compounds PR-104A, the parent alcohol form of the phosphate pre-prodrug PR-104, and evofosfamide were tested using the HCT116 and H460 cell lines under both normoxic and hypoxic conditions (Table 5). The prodrugs were much less cytotoxic than the parent drugs, in agreement with the results using the other cell lines described above (see FIG. 6).
(§2) The eight cell lines HEK293 (Human embryonic kidney 293), CHO-Kt (Chinese hamster ovary K1), MCF-7 cells (Human breast adenocarcinoma), HCT116 (human colorectal carcinoma), RKO (Human rectal carcinoma), SW480 (human colorectal carcinoma), H460 (Human lung cancer), and MRCS (Normal human fetal lung fibroblast), were obtained from the ATCC. The cell lines were routinely grown in alpha minimum essential medium (α-MEM) containing 5% fetal calf serum (FCS). The appropriate number of cells (HCT116=400 cells/well, H460 cells=600 cells/well) were seeded into 96-well plates under normoxic or hypoxic conditions. Cells were plated in 100 μL α-MEM containing 10% FCS, 10 mM D-Glucose and 0.2 mM 20-deoxycytidine. After incubation for 2 h, the compounds were added at the appropriate concentration and incubated for further 4 h. The cells were then washed three times with drug-free α-MEM (containing 5% FCS and pen/strep). The plates were then incubated for 5 days under normoxic conditions. The cells were stained with sulphorhodamine B to measure total cells as per the standard procedure described in Skehan, et. al. [Skehan, P., et. al., J. Natl. Cancer Inst., 1990, 82, 1107-1112, incorporated herein by reference in its entirety]. The IC50 was determined by interpolation as the compound concentration reducing staining to 50% of controls on the same plate as per the standard procedure described in Guise, et. al. [Guise, C. P., et. al., Biochem. Pharmacol., 2007, 74, 810-820, incorporated herein by reference in its entirety].

HCT116 [1] = test: Cytotoxicity under normoxia (MTT), HCT116; assay type: cell-based, human
Protocol: (§3) The cytotoxicity of the compounds 5a-c and their parent alkaloids was evaluated by the 3-[4,5-dimethylthiazole-2-yl]-2,5-diphenyltetrazolium bromide (MTT) assay against 5 cancerous and 2 non-cancerous cell lines (Table 4).
as §2

RKO = test: Cytotoxicity under normoxia (MTT), RKO; assay type: cell-based, Human; conditions: read-out: IC50 RKO
Protocol: as §3, §2

HCT116 [2] = test: Cytotoxicity under normoxia and hypoxia (anaerobic chamber), HCT116; assay type: cell-based, human; conditions: for IC50: 4 h exposure
Protocol: as §1, §2

MRC5 = test: Cytotoxicity under normoxia (MTT), MRC5; assay type: cell-based, human
Protocol: as §3, §2

MCF7 = test: Cytotoxicity under normoxia (MTT), MCF7; assay type: cell-based, Human
Protocol: as §3, §2

SW480 = test: Cytotoxicity under normoxia (MTT), SW480; assay type: cell-based, human
Protocol: as §3, §2

[3] = BBB-Parallel Artificial Membrane Permeability Assay (BBB-PAMPA); assay type: in vitro ADME
Protocol: The physicochemical properties of the new compounds were evaluated (Table 1). […] Consequently, these derivatives lost their BBB penetrability, as predicted by the BBB-Parallel Artificial Membrane Permeability Assay (BBB-PAMPA), whereas their parent alkaloids had free passage through the BBB.
(§4) Water solubility, log D, and PAMPA-BBB were evaluated using the protocols as described in Omran, et. al. [Omran, Z., et. al., Chem. Pharm. Bull., 2019, 67, 1208-1210, incorporated herein by reference in its entirety].

PBS (pH 7.4) solubility = assay type: physicochemical
Protocol: as §4

CHO-K1 = test: Cytotoxicity under normoxia (MTT), CHO-K1; assay type: cell-based, Chinese hamster
Protocol: as §3, §2

LogD = assay type: physicochemical
Protocol: as §4

[4] = Mouse microsomal liver stability assay; conditions: 2 μM
Protocol: Protoc. […] Microsomal incubations were carried out in 96-well plates in 5 aliquots of 40 μL each. […] Control incubations were performed by replacing the NADPH-cofactor system with PBS. The additional control incubations in PBS (with 3.3 mM MgCl2) without added microsomes were carried out in this study. […] The incubations were performed in duplicates. Five time points over 40 min had been analyzed. The reactions were stopped by adding 12 volumes of 90% acetonitrile-water to incubation aliquots, followed by protein sedimentation by centrifuging at 5500 rpm for 3 min. The supernatants were analyzed using LC-MS as mentioned above.

HEK293 = test: Cytotoxicity under normoxia (MTT), HEK293; assay type: cell-based, Human
Protocol: as §3, §2

[5] = Homo sapiens, NCI-H460, H460, hypoxia, read-out: IC50 (Hypoxia)
[6] = Homo sapiens, NCI-H460, H460, normoxia, read-out: IC50 (Normoxia)
[7] = Homo sapiens, HCT-116, read-out: IC50 HCT116
[8] = Homo sapiens, HCT-116, HTC 116, hypoxia, read-out: IC50 (Hypoxia)
[9] = Homo sapiens, HCT-116, HTC 116, normoxia, read-out: IC50 (Normoxia)
[10] = Homo sapiens, MRC5, read-out: IC50 MRC5
[11] = Homo sapiens, MCF7, read-out: IC50 MCF7
[12] = Homo sapiens, SW480, read-out: IC50 SW480
[13] = H460, hypoxia, read-out: IC50 (Hypoxia)
[14] = H460, normoxia, read-out: IC50 (Normoxia)
[15] = normoxia, read-out: IC50 HCT116
[16] = HTC 116, hypoxia, read-out: IC50 (Hypoxia)
[17] = HTC 116, normoxia, read-out: IC50 (Normoxia)
[18] = normoxia, read-out: IC50 CHO-K1
[19] = mouse hepatic microsomes, 37° C.
[20] = normoxia, read-out: IC50 HEK293

Q: Which results are given for COc1cc2c3c(c4cc(OC)c(OC)cc4c2cc1OC)C[N+]1(Cc2c([N+](=O)[O-])ncn2C)CCC[C@@H]1C3.[Br-] (stereo partly drawn) [Compound 5c, (13aR)-2,3,6,7-tetramethoxy-10-((1-methyl-4-nitro-1H-imidazol-5-yl)methyl)-10,11,12,13,13a, 14-hexahydro-9H-dibenzo[f,h]pyrrolo[1,2-b]isoquinolin-10-ium bromide]?
A: HCR (Hypoxia Cytotoxicity Ratio = normoxic IC50/hypoxic IC50) (H460): 7.8; DR (Deactivation Ratio = IC50 (prodrug)/IC50 (parent drug)) (H460; H460, normoxia): 293; IC50 (H460; [5]): 6500 nM; IC50 (H460; [6]): 51000 nM; IC50 (HCT116 [1]; [7]): 9020 ± 1130 nM; melting point: 185 to 187 °C; IC50 (RKO; Homo sapiens, RKO): 8820 ± 3080 nM; HCR (Hypoxia Cytotoxicity Ratio = normoxic IC50/hypoxic IC50) (HCT116 [2]): 1.5; DR (Deactivation Ratio = IC50 (prodrug)/IC50 (parent drug)) (HCT116 [2]; HTC 116, normoxia): 128; IC50 (HCT116 [2]; [8]): 3020 nM; IC50 (HCT116 [2]; [9]): 9060 nM; IC50 (MRC5; [10]): 3940 ± 127 nM; IC50 (MCF7; [11]): 8050 ± 343 nM; IC50 (SW480; [12]): 9860 ± 1690 nM

Q: With CN1CCN(C2=Nc3cc(Cl)ccc3Nc3ccccc32)CC1 [Clozapine] as the compound, how does the “Permeability (Papp) Log [10^−6 cm/s] Mean ± SE” value [3] read?
A: −5.1 ± 0.12 Log [10^−6 cm/s]

Q: For Cc1nccn1CC1CCc2c(c3ccccc3n2C)C1=O (stereo not drawn) [Ondansetron], which “PBS (pH 7.4) Solubility μM Mean ± SE” value (PBS (pH 7.4) solubility) is on record?
A: 96 ± 3 μM

Q: What does the source list for COc1cc2c3c(c4cc(OC)c(OC)cc4c2cc1OC)C[N+]1(Cc2c([N+](=O)[O-])ncn2C)CCC[C@H]1C3.[Br-] (stereo partly drawn) [Compound 5b, (13aS)-2,3,6,7-tetramethoxy-10-((1-methyl-4-nitro-1H-imidazol-5-yl)methyl)-10,11,12,13,13a, 14-hexahydro-9H-dibenzo[f,h]pyrrolo[1,2-b]isoquinolin-10-ium bromide]?
A: IC50 (CHO-K1; Cricetulus griseus, CHO-K1, read-out: IC50 CHO-K1): 3490 ± 843 nM; Permeability (Papp) Log [10^−6 cm/s] Mean ± SE [3]: <−7 Log [10^−6 cm/s]; HCR (Hypoxia Cytotoxicity Ratio = normoxic IC50/hypoxic IC50) (H460): 24; DR (Deactivation Ratio = IC50 (prodrug)/IC50 (parent drug)) (H460; H460, normoxia): 719; IC50 (H460; [5]): 3220 nM; IC50 (H460; [6]): 77600 nM; PBS (pH 7.4) Solubility μM Mean ± SE (PBS (pH 7.4) solubility): 162 ± 3 μM; IC50 (HCT116 [1]; [7]): 3300 ± 1560 nM; LogD Mean ± SE (LogD): 0.38 ± 0.04; melting point: 165 to 167 °C; IC50 (RKO; Homo sapiens, RKO): 4060 ± 181 nM; HCR (Hypoxia Cytotoxicity Ratio = normoxic IC50/hypoxic IC50) (HCT116 [2]): 11.3; DR (Deactivation Ratio = IC50 (prodrug)/IC50 (parent drug)) (HCT116 [2]; HTC 116, normoxia): 689; IC50 (HCT116 [2]; [8]): 1460 nM; IC50 (HCT116 [2]; [9]): 4490 nM; IC50 (MRC5; [10]): 3310 ± 163 nM; IC50 (MCF7; [11]): 1500 ± 128 nM; IC50 (SW480; [12]): 7240 ± 490 nM; Kel, min^−1 (elimination rate constant) ([4]; male, Balb/c, mouse, pH 7.4): 0.002 ± 0 min⁻¹; compound metabolized into the parent drug ([4]; male, Balb/c, mouse, microsomes, pH 7.4): less than 1%; IC50 (HEK293; Homo sapiens, HEK293, read-out: IC50 HEK293): 950 ± 174 nM

Q: Which “HCR (Hypoxia Cytotoxicity Ratio = normoxic IC50/hypoxic IC50)” value (H460; H460) does the source give for COc1cc2c3c(c4cc(OC)c(OC)cc4c2cc1OC)CN1CCC[C@@H]1C3 [(R)-Tylophorine] here?
A: 1.1

Q: What about the IC50 (H460; [13]) of the same compound?
A: 161 nM

Q: What about the IC50 (H460; [14]) of the same compound?
A: 175 nM

Q: What about the IC50 (HCT116 [1]; [15]) of the same compound?
A: 440 ± 36 nM

Q: And the IC50 (RKO; normoxia)?
A: 338 ± 61 nM

Q: And the “HCR (Hypoxia Cytotoxicity Ratio = normoxic IC50/hypoxic IC50)” value (HCT116 [2]; HTC 116)?
A: 0.6

Q: And the IC50 (HCT116 [2]; [16])?
A: 56.4 nM

Q: And the IC50 (HCT116 [2]; [17])?
A: 1710 nM

Q: And the IC50 (MRC5; normoxia, read-out: IC50 MRC5)?
A: 95 ± 6 nM

Q: What about the IC50 (MCF7; normoxia, read-out: IC50 MCF7) of the same compound?
A: 101 ± 88 nM

Q: And the IC50 (SW480; normoxia, read-out: IC50 SW480)?
A: 1150 ± 244 nM

Q: What does the source list for COc1cc2c3c(c4cc(OC)c(OC)cc4c2cc1OC)CN1CCC[C@H]1C3 [(S)-Tylophorine]?
A: IC50 (CHO-K1; [18]): 35 ± 42 nM; Permeability (Papp) Log [10^−6 cm/s] Mean ± SE [3]: −5.4 ± 0.17 Log [10^−6 cm/s]; HCR (Hypoxia Cytotoxicity Ratio = normoxic IC50/hypoxic IC50) (H460; H460): 1.1; IC50 (H460; [13]): 102 nM; IC50 (H460; [14]): 108 nM; PBS (pH 7.4) Solubility μM Mean ± SE (PBS (pH 7.4) solubility): 2 ± 0 μM; IC50 (HCT116 [1]; [15]): 85 ± 6 nM; LogD Mean ± SE (LogD): 3.14 ± 0.02; IC50 (RKO; normoxia): 202 ± 3 nM; HCR (Hypoxia Cytotoxicity Ratio = normoxic IC50/hypoxic IC50) (HCT116 [2]; HTC 116): 0.5; IC50 (HCT116 [2]; [16]): 50.1 nM; IC50 (HCT116 [2]; [17]): 35.1 nM; IC50 (MRC5; normoxia, read-out: IC50 MRC5): 27 ± 2 nM; IC50 (MCF7; normoxia, read-out: IC50 MCF7): 62 ± 13 nM; IC50 (SW480; normoxia, read-out: IC50 SW480): 69 ± 20 nM; Kel, min^−1 (elimination rate constant) [4, 19]: 0.005 ± 0 min⁻¹; t1/2, min [4, 19]: 2.125 ± 0.05 h; IC50 (HEK293; [20]): 16 ± 26 nM

Q: What does the source list for COc1ccc2c3c(c4cc(OC)c(OC)cc4c2c1)C[C@H]1CCCN1C3 [(R)-Antofine, (R)-antofine]?
A: IC50 (CHO-K1; [18]): 33 ± 50 nM; Permeability (Papp) Log [10^−6 cm/s] Mean ± SE [3]: −5.6 ± 0.58 Log [10^−6 cm/s]; HCR (Hypoxia Cytotoxicity Ratio = normoxic IC50/hypoxic IC50) (H460; H460): 0.6; IC50 (H460; [13]): 25.4 nM; IC50 (H460; [14]): 29.2 nM; PBS (pH 7.4) Solubility μM Mean ± SE (PBS (pH 7.4) solubility): 27 ± 2 μM; IC50 (HCT116 [1]; [15]): 2 nM; LogD Mean ± SE (LogD): 3.68 ± 0.03; IC50 (RKO; normoxia): 2 nM; HCR (Hypoxia Cytotoxicity Ratio = normoxic IC50/hypoxic IC50) (HCT116 [2]; HTC 116): 0.4; IC50 (HCT116 [2]; [16]): 16.7 nM; IC50 (HCT116 [2]; [17]): 23.9 nM; IC50 (MRC5; normoxia, read-out: IC50 MRC5): 6 ± 2 nM; IC50 (MCF7; normoxia, read-out: IC50 MCF7): 2 nM; IC50 (SW480; normoxia, read-out: IC50 SW480): 9 ± 2 nM; Kel, min^−1 (elimination rate constant) [4, 19]: 0.002 ± 0 min⁻¹; t1/2, min [4, 19]: 1.12 ± 0.035 h; IC50 (HEK293; [20]): 340 ± 43 nM
